In brackets after ≈: the same amount, converted by molar mass. Like-named read-outs stand apart in the source and are kept apart here.
What was measured:
Assay type in all cases: cell-based
[1] = test system: Candida glabrata (clinical isolate); assay: Broth dilution susceptibility test, MIC and percent growth (Example 5)
Experimental: These experiments were conducted to determine the effect of BromAc alone and in combination with existing antifungal drugs against Candida glabrata (clinical isolate).
(§1) A. Preparation of inoculum: • 1. Candida glabrata was grown on Sabouraud dextrose agar (SDA) at 37° C. for 24-48 hrs. • 2. Following this, 5 colonies of 1 mm diameter were picked and suspended in 5 mL sterile saline (0.9% saline) and vortexed for 15 seconds. • 3. Working suspension is prepared as a 1:100 dilution from stock suspension with RPMI 1640 culture medium. • 4. The cell density is adjusted with a spectrophotometer to the transmittance produced by a 0.5 McFarland standard (0.08 to 0.1) OD at 625 nm wavelength.
(§2) • 1. For Bromelain, a stock concentration of 1 mg/ml Bromelain solution was prepared in RPMI media and diluted to test concentrations of 62.4, 31.2, 15.6 and 7.8 μg/ml in RPMI 1640 media. • 2. Acetylcysteine stock concentration is 200 mg/ml, diluted to 40, 20, 10, and 5 mg/ml concentrations in RPMI 1640 medium. • 3. These concentrations are prepared at 2× of the required concentrations in the final assay plate.
(§3) Antifungal stock concentrations are as follows— • 1. Amphotericin B, Stock concentration: 250 μg/ml in water. • 2. Posaconazole, Original concentration: 300 mg in 16.7 ml, Working stock concentration: 1 mg/ml in DMSO. • 3. Fluconazole, Original concentration: 100 mg in 50 ml, Working stock concentration: 1 mg/ml in DMSO. • 4. The final concentration was prepared in RPMI 1640 media and concentrations range was 0.01-0.5 μg/mL for amphotericin B, 0.01-2 μg/mL for posaconazole and 0.01-64 μg/mL for fluconazole. • 5. These concentrations were prepared at 2× of the required concentrations in the final assay plate.
(§4) • 1. Wells of the 96-well plates were inoculated with appropriate concentrations and volumes of drugs. • 2. Sterility control and growth controls are included in each plate. • 3. Each 96-well plate (except the control wells) contains 100 μL of double strength (twice the final antifungal drug) concentrations. • 4. 100 μL of the fungal suspension is added to 96-well plates (except the sterility control wells). • 5. The growth control wells contained 100 μL of sterile drug-free medium and 100 μL of inoculum suspension, while the sterility control wells contained 200 μl of sterile drug-free medium. • 6. Plates are then incubated at 37° C. and read at 625,430, and 530 nm wavelengths. • 7. Data from 24 hours and absorbance at 625 nm were used for analysis.

[2] = test system: Candida Krusei (ATCC strain 6258); assay: Broth dilution susceptibility test, MIC and percent growth (Example 6)
Experimental: as §1, §2, §3, §4
These experiments were conducted to determine the effect of BromAc alone and in combination with existing antifungal drugs against Candida Krusei (ATCC strain 6258).
The method used in these experiments is essentially the same as that described above in Example 5.

Candida auris = assay: Susceptibility assay of antifungals with BromAc (Example 4); conditions: for Observed inhibitory effect: Candida aurus, antifungal in combination with BromAc (5 mg/ml Acetylcysteine+12.5 μg/ml Bromelain) vs alone
Experimental: (§5) The in vitro antifungal properties of Bromelain, Acetylcysteine, BromAc, Amphotericin B, Isavuconazole, Fluconazole and Posaconazole were determined using a broth microdilution method in round bottom 96 well plates in accordance with standard procedures defined by the Clinical Laboratory Standards Institute (CLSI).
(§6) Unless otherwise described, fungal cultures were grown on potato dextrose agar plates at 35° C. until mature (appearance of conidia) and used to prepare suspensions in sterile water. Suspensions were diluted in RPMI 1:60. These suspensions were then added in equal volume to solutions containing the candidate species described above and incubated at 35° C. for 24 hr. Plates were then analysed for fungal growth inhibition and MIC values determined.
(§7) BromAc (5 mg/ml Acetylcysteine+12.5 μg/ml Bromelain) was used in combination with Amphotericin B, Isavuconazole, Posaconazole and Fluconazole. The MIC values of these four antifungal agents against the fungus described below were calculated and compared with their corresponding MIC values in the presence of BromAc, using the standard susceptibility assays described above.
(§8) The fungal strains set out in Table 2, all of which were sourced from a range of clinical isolates from Australian hospitals, were used in these experiments to gain a further understanding of the efficacy of BromAc in combination with Amphotericin B, Isavuconazole, Posaconazole and Fluconazole.

Candida glabrata = assay: as above; conditions: for Observed inhibitory effect: antifungal in combination with BromAc (5 mg/ml Acetylcysteine+12.5 μg/ml Bromelain) vs alone
Experimental: as §5, §6, §7, §8

Candida kruseii = assay: as above; conditions: antifungal in combination with BromAc (5 mg/ml Acetylcysteine+12.5 μg/ml Bromelain) vs alone
Experimental: as §5, §6, §7, §8

Candida tropicalis = assay: as above; conditions: antifungal in combination with BromAc (5 mg/ml Acetylcysteine+12.5 μg/ml Bromelain) vs alone
Experimental: as §5, §6, §7, §8

Cryptococcus = assay: as above; conditions: for Observed inhibitory effect: antifungal in combination with BromAc (5 mg/ml Acetylcysteine+12.5 μg/ml Bromelain) vs alone; for isolates with more than 10× increase: antifungal with BromAc
Experimental: as §5, §6, §7, §8

Rhizopus arrhizus = assay: Chequerboard broth microdilution antifungal susceptibility testing (MIC)
Experimental: as §6, with “Suspensions were diluted in RPMI 1:60.” left out, “determined. […] [MICA (combined)/MICA]+[MICB (combined)/MICB] MICA (combined) is the MIC of drug A when both drugs (i.e. drug A and drug B) are present and MICA is the MIC of drug A used in isolation. Similarly, MICB (combined) is the MIC of drug B when both drugs are present and MICB is the MIC of drug B used in isolation.” for “determined.”

Rhizopus microsporus = assay: as above
Experimental: as §6, with “Suspensions were diluted in RPMI 1:60.” left out, “determined. […] [MICA (combined)/MICA]+[MICB (combined)/MICB] MICA (combined) is the MIC of drug A when both drugs (i.e. drug A and drug B) are present and MICA is the MIC of drug A used in isolation. Similarly, MICB (combined) is the MIC of drug B when both drugs are present and MICB is the MIC of drug B used in isolation.” for “determined.”

Aspergillus = assay: Susceptibility assay of antifungals with BromAc (Example 4); conditions: antifungal in combination with BromAc (5 mg/ml Acetylcysteine+12.5 μg/ml Bromelain) vs alone
Experimental: as §5, §6, §7, §8

Cunninghamella = assay: as above; conditions: antifungal in combination with BromAc (5 mg/ml Acetylcysteine+12.5 μg/ml Bromelain) vs alone
Experimental: as §5, §6, §7, §8

Fusarium = assay: as above; conditions: antifungal in combination with BromAc (5 mg/ml Acetylcysteine+12.5 μg/ml Bromelain) vs alone
Experimental: as §5, §6, §7, §8

Licthemia = assay: as above; conditions: antifungal in combination with BromAc (5 mg/ml Acetylcysteine+12.5 μg/ml Bromelain) vs alone
Experimental: as §5, §6, §7, §8

Lomentospora = assay: as above; conditions: antifungal in combination with BromAc (5 mg/ml Acetylcysteine+12.5 μg/ml Bromelain) vs alone
Experimental: as §5, §6, §7, §8

Mucor circinelloides = assay: as above
Experimental: as §5, §6, §7, §8

Scedosporium = assay: as above; conditions: antifungal in combination with BromAc (5 mg/ml Acetylcysteine+12.5 μg/ml Bromelain) vs alone
Experimental: as §5, §6, §7, §8

[3] = test system: Aspergillus fumigatus (ATCC strain 13697); assay: Broth dilution susceptibility test, MIC and percent growth (Example 7)
Experimental: as §1, §2, §3, §4
These experiments were conducted to determine the efficacy of BromAc alone and in combination with existing antifungal drugs against Aspergillus fumigatus (ATCC strain 13697).
The method used in these experiments is essentially the same as that described above in Example 5. In these experiments, however, echinocandins such as […] Caspofungin are used in place of the azole antifungals described in earlier examples.

OC(Cn1cncn1)(Cn1cncn1)c1ccc(F)cc1F [Fluconazole]
MIC ([1]; Nakaseomyces glabratus, 50% growth inhibition, 24 hours, 625 nm): > 32 µg/mL
effect at lower concentration compared to growth control (in words) ([1]; concentrations lower than the MIC): no change
MIC ([2]; Pichia kudriavzevii, ATCC6258, 50% growth inhibition, FIG. 11): 32 µg/mL
inhibition at 32 µg/mL ([2]; Pichia kudriavzevii, ATCC6258, Posaconazole 1 ug/ml, Fluconazole 32 μg/ml, read-out: activity (growth inhibition) at its MIC): 50%
effect at lower doses / concentrations compared to GC (in words) ([2]; below the MIC (Posaconazole 0.03 μg/ml)): no efficacy
Observed inhibitory effect (Candida auris): No effect
Observed inhibitory effect (Candida glabrata): Strong (Strong = 5-10x (or greater) inhibitory effect)
Observed inhibitory effect (Candida kruseii): Strong (Strong = 5-10x (or greater) inhibitory effect)
Observed inhibitory effect (Candida tropicalis): Strong (Strong = 5-10x (or greater) inhibitory effect)
Observed inhibitory effect (Cryptococcus): Strong (Strong = 5-10x (or greater) inhibitory effect)
isolates with more than 10× increase (Cryptococcus): 5 of 5

C[C@@H](c1nc(-c2ccc(C#N)cc2)cs1)[C@](O)(Cn1cncn1)c1cc(F)ccc1F [Isavuconazole]
isolates with 10× increase (Rhizopus arrhizus; Rhizopus Arrhizus, antifungal with BromAc): 6 of 8
MIC (Rhizopus arrhizus; Rhizopus arrhizus, eight R. arrhizus strains, read-out: MIC, average over the strains): 0.8 µg/mL (≈ 1.83 µM)
MIC (Rhizopus arrhizus; Rhizopus arrhizus, isolate R. archizus 1, BromAc at constant concentration where combined, read-out: MIC): 1 µg/mL
MIC (Rhizopus arrhizus; Rhizopus arrhizus, isolate R. archizus 2, BromAc at constant concentration where combined, read-out: MIC): 1 µg/mL
MIC (Rhizopus arrhizus; Rhizopus arrhizus, isolate R. archizus 3, BromAc at constant concentration where combined, read-out: MIC): 1 µg/mL
MIC (Rhizopus arrhizus; Rhizopus arrhizus, isolate R. archizus 8, BromAc at constant concentration where combined, read-out: MIC): 1 µg/mL
MIC (Rhizopus arrhizus; Rhizopus arrhizus, isolate R. arrhizus 4, BromAc at constant concentration where combined, read-out: MIC): 1 µg/mL
MIC (Rhizopus arrhizus; Rhizopus arrhizus, isolate R. arrhizus 5, BromAc at constant concentration where combined, read-out: MIC): 0.5 µg/mL
MIC (Rhizopus arrhizus; Rhizopus arrhizus, isolate R. arrhizus 6, BromAc at constant concentration where combined, read-out: MIC): 1 µg/mL
MIC (Rhizopus arrhizus; Rhizopus arrhizus, isolate R. arrhizus 7, BromAc at constant concentration where combined, read-out: MIC): 0.5 µg/mL
Observed inhibitory effect (Rhizopus arrhizus; Rhizopus arrhizus, antifungal in combination with BromAc (5 mg/ml Acetylcysteine+12.5 μg/ml Bromelain) vs alone): Strong (Strong = 5-10x (or greater) inhibitory effect)
MICs, range over the strains (Rhizopus arrhizus; eight R. arrhizus strains): 0.5 to 2 µg/mL
isolates with more than 10× increase (Rhizopus microsporus; Rhizopus microspores, antifungal with BromAc): 9 of 10
MIC (Rhizopus microsporus; Rhizopus microsporus, eight R. microsporus strains, read-out: MIC, average over the strains): 0.9 µg/mL (≈ 2.06 µM)
MIC (Rhizopus microsporus; Rhizopus microsporus, isolate R. microsporus 1, BromAc at constant concentration where combined, read-out: MIC): 0.2 µg/mL
MIC (Rhizopus microsporus; Rhizopus microsporus, isolate R. microsporus 2, BromAc at constant concentration where combined, read-out: MIC): 0.5 µg/mL
MIC (Rhizopus microsporus; Rhizopus microsporus, isolate R. microsporus 3, BromAc at constant concentration where combined, read-out: MIC): 0.5 µg/mL
MIC (Rhizopus microsporus; Rhizopus microsporus, isolate R. microsporus 4, BromAc at constant concentration where combined, read-out: MIC): 1 µg/mL
MIC (Rhizopus microsporus; Rhizopus microsporus, isolate R. microsporus 5, BromAc at constant concentration where combined, read-out: MIC): 0.5 µg/mL
MIC (Rhizopus microsporus; Rhizopus microsporus, isolate R. microsporus 6, BromAc at constant concentration where combined, read-out: MIC): 0.5 µg/mL
MIC (Rhizopus microsporus; Rhizopus microsporus, isolate R. microsporus 7, BromAc at constant concentration where combined, read-out: MIC): 0.5 µg/mL
Observed inhibitory effect (Rhizopus microsporus; Rhizopus microsporus, antifungal in combination with BromAc (5 mg/ml Acetylcysteine+12.5 μg/ml Bromelain) vs alone): Strong (Strong = 5-10x (or greater) inhibitory effect)
MICs, range over the strains (Rhizopus microsporus; eight R. microsporus strains): 0.5 to 1 µg/mL
Observed inhibitory effect (Aspergillus): Moderate (Moderate = 1-5x inhibitory effect)
isolates with more than 10× increase (Candida auris; Candida auris, antifungal with BromAc): 4 of 5
Observed inhibitory effect (Candida auris): Strong (Strong = 5-10x (or greater) inhibitory effect)
Observed inhibitory effect (Candida glabrata): Strong (Strong = 5-10x (or greater) inhibitory effect)
isolates with more than a 10× increase in sensitivity (Candida glabrata; antifungal with BromAc): 5 of 5
Observed inhibitory effect (Candida kruseii): Strong (Strong = 5-10x (or greater) inhibitory effect)
Observed inhibitory effect (Candida tropicalis): Strong (Strong = 5-10x (or greater) inhibitory effect)
Observed inhibitory effect (Cryptococcus): Strong (Strong = 5-10x (or greater) inhibitory effect)
isolates with more than 10× increase (Cryptococcus): 5 of 5
Observed inhibitory effect (Cunninghamella): Possible
Observed inhibitory effect (Fusarium): No effect
Observed inhibitory effect (Licthemia): Possible
Observed inhibitory effect (Lomentospora): No effect
Observed inhibitory effect (Mucor circinelloides; antifungal in combination with BromAc (5 mg/ml Acetylcysteine+12.5 μg/ml Bromelain) vs alone): Strong (Strong = 5-10x (or greater) inhibitory effect)
isolates with increased sensitivity (Mucor circinelloides; antifungal with BromAc): 2 of 2
Observed inhibitory effect (Scedosporium): No effect

C[C@@H](c1ncncc1F)[C@](O)(Cn1cncn1)c1ccc(F)cc1F [Voriconazole]
MIC ([3]; Aspergillus fumigatus, ATCC13697, FIGS. 13a, 14a, read-out: MIC): 2 µg/mL
effect at lower concentrations (in words) ([3]; Voriconazole 1 μg/ml and 0.5 μg/ml, Caspofungin 0.25 μg/ml and 0.125 μg/ml): almost no inhibitory effect
